# Data reported in the kinase profiling compilation of Christmann-Franck et al. (2016).
# Legend:
# Assay in all cases: radiometric filter-binding kinase assay, Kinase HotSpot
# Conditions in all cases: compound 0.5 µM; ATP 10 µM
# [1] = target: PRKACA (human) (UniProt P17612)
# [2] = target: TNK2 (human) (UniProt Q07912)
# [3] = target: ABL2 (human) (UniProt P42684)
# [4] = target: PLK2 (human) (UniProt Q9NYY3)
# [5] = target: MST1R (human) (UniProt Q04912)
# [6] = target: MAP2K2 (human) (UniProt P36507)
# Chain of MAP2K2 (human) (P36507 whole entry, looked up): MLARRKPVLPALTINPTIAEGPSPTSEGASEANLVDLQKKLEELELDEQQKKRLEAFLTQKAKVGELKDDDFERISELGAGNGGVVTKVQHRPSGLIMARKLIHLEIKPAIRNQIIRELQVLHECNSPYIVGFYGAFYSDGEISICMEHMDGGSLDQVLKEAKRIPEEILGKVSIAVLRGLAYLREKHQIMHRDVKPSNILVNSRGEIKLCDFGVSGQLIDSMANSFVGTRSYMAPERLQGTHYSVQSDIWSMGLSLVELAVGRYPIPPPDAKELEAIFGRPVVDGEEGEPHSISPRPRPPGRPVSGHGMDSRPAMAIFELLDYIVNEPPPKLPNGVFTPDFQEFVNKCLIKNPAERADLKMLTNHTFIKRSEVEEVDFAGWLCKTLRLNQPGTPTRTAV
# [7] = target: DDR2 (human) (UniProt Q16832)
# [8] = target: KIT (human) (UniProt P10721)
# [9] = target: EPHA1 (human) (UniProt P21709)
# [10] = target: AURKB (human) (UniProt Q96GD4)
# [11] = target: DCLK2 (human) (UniProt Q8N568)
# Chain of DCLK2 (human) (Q8N568 whole entry, looked up): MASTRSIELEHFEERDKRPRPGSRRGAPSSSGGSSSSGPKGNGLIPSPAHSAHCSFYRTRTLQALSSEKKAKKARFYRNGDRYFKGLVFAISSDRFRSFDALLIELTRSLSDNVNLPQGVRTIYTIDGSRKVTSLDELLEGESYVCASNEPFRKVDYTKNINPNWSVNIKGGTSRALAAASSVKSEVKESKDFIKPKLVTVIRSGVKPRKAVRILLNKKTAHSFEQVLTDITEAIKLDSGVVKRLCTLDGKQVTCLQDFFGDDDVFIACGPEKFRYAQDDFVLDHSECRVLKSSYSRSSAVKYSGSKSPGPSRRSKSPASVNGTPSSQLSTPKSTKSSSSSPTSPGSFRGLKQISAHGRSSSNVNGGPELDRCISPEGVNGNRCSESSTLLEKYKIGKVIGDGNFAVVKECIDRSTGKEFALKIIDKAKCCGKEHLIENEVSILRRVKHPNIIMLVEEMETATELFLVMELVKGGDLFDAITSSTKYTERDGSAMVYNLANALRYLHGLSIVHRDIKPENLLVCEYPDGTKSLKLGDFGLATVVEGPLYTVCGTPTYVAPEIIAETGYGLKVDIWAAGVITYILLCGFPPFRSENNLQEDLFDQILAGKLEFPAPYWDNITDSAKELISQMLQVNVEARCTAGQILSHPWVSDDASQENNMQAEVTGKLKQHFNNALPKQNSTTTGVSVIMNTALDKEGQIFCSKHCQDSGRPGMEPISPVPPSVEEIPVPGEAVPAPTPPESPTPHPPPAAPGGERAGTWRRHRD
# [12] = target: CAMKK1 (human) (UniProt Q8N5S9)
# [13] = target: SLK (human) (UniProt Q9H2G2)
# [14] = target: CSNK1G3 (human) (UniProt Q9Y6M4)
# Chain of CSNK1G3 (human) (Q9Y6M4 whole entry, looked up): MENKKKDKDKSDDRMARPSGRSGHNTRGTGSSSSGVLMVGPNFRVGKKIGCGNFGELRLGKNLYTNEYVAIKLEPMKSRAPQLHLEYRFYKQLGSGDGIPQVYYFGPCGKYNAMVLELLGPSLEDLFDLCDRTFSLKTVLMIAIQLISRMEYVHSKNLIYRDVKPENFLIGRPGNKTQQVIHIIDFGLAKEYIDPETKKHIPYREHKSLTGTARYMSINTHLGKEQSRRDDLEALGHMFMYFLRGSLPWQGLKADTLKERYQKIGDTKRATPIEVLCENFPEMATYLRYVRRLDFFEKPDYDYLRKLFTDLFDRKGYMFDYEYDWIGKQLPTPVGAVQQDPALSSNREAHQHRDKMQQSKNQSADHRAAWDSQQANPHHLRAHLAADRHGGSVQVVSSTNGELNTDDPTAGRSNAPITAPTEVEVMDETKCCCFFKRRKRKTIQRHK
# [15] = target: LTK (human) (UniProt P29376)
# [16] = target: DYRK1A (human) (UniProt Q13627)
# [17] = target: MAP3K14 (human) (UniProt Q99558)
# [18] = target: CAMK2A (human) (UniProt Q9UQM7)
# [19] = target: PRKCE (human) (UniProt Q02156)
# [20] = target: CDK7 CCNH MNAT1 (human) (UniProt P50613+P51948+P51946)
# [21] = target: MYLK (human) (UniProt Q15746)
# [22] = target: SIK2 (human) (UniProt Q9H0K1)
# [23] = target: PRKD1 (human) (UniProt Q15139)
# [24] = target: PASK (human) (UniProt Q96RG2)
# Chain of PASK (human) (Q96RG2 whole entry, looked up): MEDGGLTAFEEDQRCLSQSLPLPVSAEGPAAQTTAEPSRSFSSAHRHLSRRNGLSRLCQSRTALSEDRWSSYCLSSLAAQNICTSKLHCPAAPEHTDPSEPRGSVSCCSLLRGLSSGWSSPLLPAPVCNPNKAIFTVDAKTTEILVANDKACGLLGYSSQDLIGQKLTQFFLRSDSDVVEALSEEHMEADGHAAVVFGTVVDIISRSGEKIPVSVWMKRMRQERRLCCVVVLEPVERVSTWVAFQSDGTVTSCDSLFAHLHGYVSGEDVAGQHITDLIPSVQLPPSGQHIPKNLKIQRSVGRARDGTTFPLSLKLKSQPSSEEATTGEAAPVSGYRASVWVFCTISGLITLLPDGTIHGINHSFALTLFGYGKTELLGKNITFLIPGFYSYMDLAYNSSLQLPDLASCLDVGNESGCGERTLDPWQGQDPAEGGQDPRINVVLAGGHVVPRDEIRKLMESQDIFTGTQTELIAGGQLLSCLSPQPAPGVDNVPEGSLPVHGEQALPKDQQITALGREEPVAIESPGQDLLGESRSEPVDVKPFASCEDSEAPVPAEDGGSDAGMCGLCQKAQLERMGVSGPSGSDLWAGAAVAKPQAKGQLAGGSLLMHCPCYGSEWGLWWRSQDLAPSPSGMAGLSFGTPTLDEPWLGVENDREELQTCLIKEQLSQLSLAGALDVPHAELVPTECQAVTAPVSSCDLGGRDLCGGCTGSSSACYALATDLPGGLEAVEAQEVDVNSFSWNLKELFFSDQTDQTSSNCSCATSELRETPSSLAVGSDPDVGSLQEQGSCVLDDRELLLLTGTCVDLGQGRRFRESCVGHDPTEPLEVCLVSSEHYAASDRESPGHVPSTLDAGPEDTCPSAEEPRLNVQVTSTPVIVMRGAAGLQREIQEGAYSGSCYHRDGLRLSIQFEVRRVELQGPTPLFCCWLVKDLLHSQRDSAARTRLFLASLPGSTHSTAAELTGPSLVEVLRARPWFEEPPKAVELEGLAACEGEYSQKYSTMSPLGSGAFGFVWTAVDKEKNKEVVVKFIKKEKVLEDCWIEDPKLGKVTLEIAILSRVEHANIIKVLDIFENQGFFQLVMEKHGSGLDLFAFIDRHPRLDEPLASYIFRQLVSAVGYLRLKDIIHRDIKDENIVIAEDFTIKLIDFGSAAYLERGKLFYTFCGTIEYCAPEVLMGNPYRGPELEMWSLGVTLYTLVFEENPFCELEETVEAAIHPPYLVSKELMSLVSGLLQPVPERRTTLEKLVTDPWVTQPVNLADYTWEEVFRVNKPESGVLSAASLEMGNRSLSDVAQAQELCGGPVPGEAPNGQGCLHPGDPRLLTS
# [25] = target: FLT3 (human) (UniProt P36888)
# [26] = target: SRPK2 (human) (UniProt P78362)
# [27] = target: DSTYK (human) (UniProt Q6XUX3)
# [28] = target: OXSR1 (human) (UniProt O95747)
# [29] = target: CLK2 (human) (UniProt P49760)
# [30] = target: STK16 (human) (UniProt O75716)
# Chain of STK16 (human) (O75716 whole entry, looked up): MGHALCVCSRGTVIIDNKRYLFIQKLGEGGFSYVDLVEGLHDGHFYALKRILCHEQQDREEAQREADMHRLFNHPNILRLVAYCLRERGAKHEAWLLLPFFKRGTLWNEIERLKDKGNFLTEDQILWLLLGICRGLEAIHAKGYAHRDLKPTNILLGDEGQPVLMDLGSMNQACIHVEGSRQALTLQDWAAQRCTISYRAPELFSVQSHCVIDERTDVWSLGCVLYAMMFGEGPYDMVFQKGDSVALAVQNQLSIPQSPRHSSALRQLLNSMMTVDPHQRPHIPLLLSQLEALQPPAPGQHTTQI
# [31] = target: FGFR2 (human) (UniProt P21802)
# Chain of FGFR2 (human) (P21802 whole entry, looked up): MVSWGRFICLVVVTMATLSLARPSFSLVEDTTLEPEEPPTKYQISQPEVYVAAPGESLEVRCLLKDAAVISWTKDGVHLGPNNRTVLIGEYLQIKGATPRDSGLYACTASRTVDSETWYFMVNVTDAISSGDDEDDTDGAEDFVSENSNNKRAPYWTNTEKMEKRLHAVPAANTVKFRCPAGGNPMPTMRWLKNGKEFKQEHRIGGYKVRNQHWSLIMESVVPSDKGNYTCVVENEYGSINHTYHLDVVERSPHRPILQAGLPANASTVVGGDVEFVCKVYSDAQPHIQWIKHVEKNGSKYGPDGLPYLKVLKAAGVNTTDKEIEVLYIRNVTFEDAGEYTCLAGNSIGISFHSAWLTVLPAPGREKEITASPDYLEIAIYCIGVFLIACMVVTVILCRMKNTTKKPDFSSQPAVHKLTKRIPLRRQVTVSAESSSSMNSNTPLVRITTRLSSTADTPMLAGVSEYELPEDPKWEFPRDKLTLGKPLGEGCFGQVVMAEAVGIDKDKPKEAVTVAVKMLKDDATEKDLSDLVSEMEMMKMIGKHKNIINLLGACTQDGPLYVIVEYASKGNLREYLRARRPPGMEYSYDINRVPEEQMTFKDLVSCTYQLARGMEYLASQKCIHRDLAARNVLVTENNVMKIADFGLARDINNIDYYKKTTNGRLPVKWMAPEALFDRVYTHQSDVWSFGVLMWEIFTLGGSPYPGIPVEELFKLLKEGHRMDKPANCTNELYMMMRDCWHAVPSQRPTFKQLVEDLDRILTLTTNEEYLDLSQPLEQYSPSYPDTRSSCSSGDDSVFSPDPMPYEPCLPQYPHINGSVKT
# [32] = target: FGR (human) (UniProt P09769)
# [33] = target: TYRO3 (human) (UniProt Q06418)
# Chain of TYRO3 (human) (Q06418 whole entry, looked up): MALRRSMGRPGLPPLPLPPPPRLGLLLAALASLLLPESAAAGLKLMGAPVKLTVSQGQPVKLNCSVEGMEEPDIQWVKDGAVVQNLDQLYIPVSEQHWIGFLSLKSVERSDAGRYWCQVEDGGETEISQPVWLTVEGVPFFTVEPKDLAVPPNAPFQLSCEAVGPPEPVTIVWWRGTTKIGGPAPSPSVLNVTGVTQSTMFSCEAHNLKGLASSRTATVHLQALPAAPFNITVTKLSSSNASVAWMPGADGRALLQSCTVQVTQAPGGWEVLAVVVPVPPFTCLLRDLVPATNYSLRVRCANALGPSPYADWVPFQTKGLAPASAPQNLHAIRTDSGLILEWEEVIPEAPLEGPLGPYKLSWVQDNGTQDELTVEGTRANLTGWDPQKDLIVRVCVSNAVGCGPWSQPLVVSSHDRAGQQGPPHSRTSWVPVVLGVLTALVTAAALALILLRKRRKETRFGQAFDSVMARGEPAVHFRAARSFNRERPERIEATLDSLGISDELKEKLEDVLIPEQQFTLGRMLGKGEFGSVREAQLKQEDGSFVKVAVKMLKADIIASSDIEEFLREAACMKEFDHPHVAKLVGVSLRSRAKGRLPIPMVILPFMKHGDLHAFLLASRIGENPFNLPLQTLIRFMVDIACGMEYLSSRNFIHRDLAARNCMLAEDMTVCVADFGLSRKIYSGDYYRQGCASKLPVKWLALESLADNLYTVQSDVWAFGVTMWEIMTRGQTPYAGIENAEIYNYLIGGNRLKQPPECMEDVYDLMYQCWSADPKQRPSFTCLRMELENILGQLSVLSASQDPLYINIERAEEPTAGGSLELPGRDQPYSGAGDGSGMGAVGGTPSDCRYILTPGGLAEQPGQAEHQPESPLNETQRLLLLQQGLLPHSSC
# [34] = target: TAOK3 (human) (UniProt Q9H2K8)
# [35] = target: HIPK2 (human) (UniProt Q9H2X6)
# [36] = target: CSNK2A2 (human) (UniProt P19784)
# [37] = target: AURKC (human) (UniProt Q9UQB9)
# [38] = target: ALK (human) (UniProt Q9UM73)
# [39] = target: TAOK2 (human) (UniProt Q9UL54)
# [40] = target: STK24 (human) (UniProt Q9Y6E0)
# [41] = target: MAPK9 (human) (UniProt P45984)
# [42] = target: JAK2 JH1 JH2 (human) (UniProt O60674)
smiles,measurement,setting,value
Cc1cccc(-c2nc(C(C)(C)C)[nH]c2-c2ccc3c(c2)OCO3)n1,residual activity,[1],102%
same,residual activity,[2],99.3%
same,residual activity,[3],95.7%
same,residual activity,[4],92.1%
same,residual activity,[5],101%
same,residual activity,[6],108%
same,residual activity,[7],98.3%
same,residual activity,[8],93.6%
same,residual activity,[9],124%
same,residual activity,[10],96.5%
same,residual activity,[11],101%
same,residual activity,[12],103%
same,residual activity,[13],108%
same,residual activity,[14],102%
same,residual activity,[15],99.2%
same,residual activity,[16],98.4%
same,residual activity,[17],109%
same,residual activity,[18],103%
same,residual activity,[19],97.9%
same,residual activity,[20],106%
same,residual activity,[21],105%
same,residual activity,[22],91.4%
same,residual activity,[23],92.3%
same,residual activity,[24],78.9%
same,residual activity,[25],96.2%
same,residual activity,[26],95.8%
same,residual activity,[27],89.1%
same,residual activity,[28],103%
same,residual activity,[29],95.2%
same,residual activity,[30],90.1%
same,residual activity,[31],105%
same,residual activity,[32],99.9%
same,residual activity,[33],102%
same,residual activity,[34],102%
same,residual activity,[35],101%
same,residual activity,[36],83.6%
same,residual activity,[37],91.4%
same,residual activity,[38],103%
same,residual activity,[39],87.6%
same,residual activity,[40],100%
same,residual activity,[41],98.2%
C[C@@H]1CCN(C(=O)CC#N)C[C@@H]1N(C)c1ncnc2[nH]ccc12,residual activity,[2],87.1%
same,residual activity,[3],90.5%
same,residual activity,[4],102%
same,residual activity,[5],102%
same,residual activity,[6],117%
same,residual activity,[7],104%
same,residual activity,[8],98.9%
same,residual activity,[9],98%
same,residual activity,[10],99.2%
same,residual activity,[11],96.6%
same,residual activity,[12],101%
same,residual activity,[13],89.2%
same,residual activity,[14],101%
same,residual activity,[16],102%
same,residual activity,[17],107%
same,residual activity,[18],99.6%
same,residual activity,[19],98.5%
same,residual activity,[20],119%
same,residual activity,[21],89.9%
same,residual activity,[22],89.2%
same,residual activity,[23],97.3%
same,residual activity,[24],105%
same,residual activity,[25],77.9%
same,residual activity,[26],90.7%
same,residual activity,[27],98.4%
same,residual activity,[28],98.2%
same,residual activity,[29],85.8%
same,residual activity,[30],94.7%
same,residual activity,[31],91.7%
same,residual activity,[32],91.1%
same,residual activity,[33],103%
same,residual activity,[34],94.9%
same,residual activity,[35],96.9%
same,residual activity,[36],96.6%
same,residual activity,[37],85.3%
same,residual activity,[38],107%
same,residual activity,[39],100%
same,residual activity,[40],96.1%
same,residual activity,[41],112%
Fc1ccc(-c2nc3n(c2-c2ccncc2)CCS3)cc1,residual activity,[42],93.6%
same,residual activity,[2],98%
same,residual activity,[3],91%
same,residual activity,[4],103%
same,residual activity,[5],97.3%
same,residual activity,[6],106%
same,residual activity,[7],94.9%
same,residual activity,[8],92.8%
same,residual activity,[9],98.2%
same,residual activity,[10],98.5%
same,residual activity,[11],97.4%
same,residual activity,[12],113%
same,residual activity,[13],110%
same,residual activity,[14],97.9%
same,residual activity,[15],102%
same,residual activity,[16],97.5%
same,residual activity,[17],103%
same,residual activity,[18],106%
same,residual activity,[19],97.7%
same,residual activity,[20],95%
same,residual activity,[21],105%
same,residual activity,[22],108%
same,residual activity,[23],90.2%
same,residual activity,[24],109%
same,residual activity,[25],94.7%
same,residual activity,[27],105%
same,residual activity,[28],92.5%
same,residual activity,[29],105%
same,residual activity,[30],106%
same,residual activity,[31],106%
same,residual activity,[32],92.6%
same,residual activity,[33],104%
same,residual activity,[34],98.9%
same,residual activity,[35],99.2%
same,residual activity,[36],105%
same,residual activity,[37],102%
same,residual activity,[38],124%
same,residual activity,[39],95.7%
same,residual activity,[40],94.2%
same,residual activity,[41],90.6%
